Measured values reported in ChEMBL document CHEMBL6182947, “Discovery of Phloroglucinol Derivatives as a New Type of Nonnucleoside Inhibitors with Anti-herpes Simplex Virus Type 1 Activity” (J Med Chem, 2025).
One block for each molecule: values may come before it. Active and inactive are the calls of the source. The rule behind the calls is not given here.

Key:
Human alphaherpesvirus 1 [1] = experiment: Antiviral activity against HSV1 expressing GFP infected in African green monkey Vero cells assessed as fold reduction in viral titer green fluorescence protein expression at 2 uM measured after 48 hrs post-infection by immunofluorescence based fluorescence microscopy; type: functional
Human alphaherpesvirus 1 [2] = experiment: Antiviral activity against ACV-resistant HSV1 153 infected in African green monkey Vero cells assessed as reduction of virus-induced cytopathic effect measured after 48 hrs of incubation; type: functional, organism-based; settings: Human alphaherpesvirus 1, 153, Vero
[3] = Selectivity index, ratio of CC50 for Cytotoxicity against african green monkey Vero cells to IC50 for Antiviral activity against HSV1 infected in African green monkey Vero cells; type: toxicity, cell-based; settings: read-out: Selectivity Index
Human alphaherpesvirus 1 [4] = experiment: Antiviral activity against ACV-resistant HSV1 Blue infected in African green monkey Vero cells assessed as reduction of virus-induced cytopathic effect measured after 48 hrs of incubation; type: functional, organism-based; settings: Human alphaherpesvirus 1, Blue
Human alphaherpesvirus 1 [5] = experiment: Antiviral activity against HSV1 expressing GFP infected in African green monkey Vero cells assessed as fold reduction in viral titer green fluorescence protein expression measured after 48 hrs post-infection by immunofluorescence based fluorescence microscopy; type: functional
[6] = Cytotoxicity against African green monkey Vero cells assessed as cell viability measured after 24 hrs incubation by MTT assay; type: toxicity, cell-based; settings: chlorocebus sabaeus
Human alphaherpesvirus 1 [7] = experiment: Antiviral activity against HSV1 infected in African green monkey Vero cells assessed as reduction of virus-induced cytopathic effect measured after 48 hrs of incubation; type: functional, organism-based; settings: Human alphaherpesvirus 1, Vero
Human alphaherpesvirus 1 [8] = experiment: Antiviral activity against HSV1 infected in African green monkey Vero cells assessed as reduction of virus yield at 2 uM treated for 0 to 14 hrs of post-infection; type: functional, organism-based; settings: time 0-14 hrs
Vero [9] = experiment: Inhibition of CDK7/Cyclin T1 in African green monkey Vero cells infected with HSV1 assessed as catalytic hydrolysis of ATP measured after 12 hrs by Western blot analysis; type: cell-based; settings: Chlorocebus aethiops
Vero [10] = experiment: Suppression of phosphorylation of RNA polymerase at serine 2 C-terminal domain in HSV1 infected African green monkey Vero cells at 0.25 to 2 uM measured after 12 hrs incubation by Western blot analysis; type: cell-based; settings: Human alphaherpesvirus 1, dose 0.25-2 µM
Vero [11] = experiment: Inhibition of CDK9/Cyclin T1 in African green monkey Vero cells infected with HSV1 assessed as catalytic hydrolysis of ATP measured after 12 hrs by Western blot analysis; type: cell-based; settings: Chlorocebus aethiops
Human alphaherpesvirus 1 [12] = experiment: Antiviral activity against HSV1 infected in African green monkey Vero cells assessed as inhibition of virus replication at 2 uM treated 8 hrs of post-infection; type: functional, organism-based
Human alphaherpesvirus 1 [13] = experiment: Antiviral activity against HSV1 expressing GFP infected in African green monkey Vero cells assessed as suppression of infection at 50 times of IC50 concentration measured after 48 hrs post-infection; type: functional, organism-based
Human alphaherpesvirus 1 [14] = experiment: In vivo antiviral activity against HSV1 infected in BALB/c mouse right ear by scratch assessed as increase in body weight at 10 to 20 mg/kg, applied topically measured for 5 to 9 days post-infection relative to control; type: functional, organism-based; settings: dose 10-20 mg/kg, time 5-9 day
Human alphaherpesvirus 1 [15] = experiment: In vivo antiviral activity against HSV1 infected in BALB/c mouse right ear by scratch assessed as reduction in ear thickness at 10 to 20 mg/kg, applied topically measured for 5 to 9 days post-infection; type: functional, organism-based; settings: dose 10-20 mg/kg, time 5-9 day
Vero [16] = experiment: Suppression of phosphorylation of RNA polymerase at serine 5 C-terminal domain in HSV1 infected African green monkey Vero cells measured after 12 hrs incubation by Western blot analysis; type: cell-based; settings: Human alphaherpesvirus 1, dose 0.25-2 µM
Human alphaherpesvirus 2 = experiment: Antiviral activity against HSV2 infected in African green monkey Vero cells assessed as reduction of virus-induced cytopathic effect measured after 48 hrs of incubation; type: functional, organism-based; settings: Human alphaherpesvirus 2, Vero
Human alphaherpesvirus 1 [17] = experiment: In vivo antiviral activity against HSV1 infected in BALB/c mouse right ear by scratch assessed as reduction in gD glycoprotein level at 10 to 20 mg/kg, applied topically measured for 5 to 9 days post-infection; type: functional, organism-based; settings: dose 10-20 mg/kg, time 5-9 day
Human alphaherpesvirus 1 [18] = experiment: In vivo antiviral activity against HSV1 infected in BALB/c mouse right ear by scratch assessed as reduction in viral titer in ear tissue homogenate at 10 to 20 mg/kg, applied topically measured for 5 to 9 days post-infection; type: functional, organism-based; settings: dose 10-20 mg/kg, time 5-9 day
Human alphaherpesvirus 1 [19] = experiment: In vivo antiviral activity against HSV1 infected in BALB/c mouse right ear by scratch assessed as reduction in skin lesions at 10 to 20 mg/kg, applied topically measured for 5 to 9 days post-infection; type: functional, organism-based; settings: dose 10-20 mg/kg, time 5-9 day
[20] = Toxicity in BALB/c mouse assessed as toxic side effects at 10 to 20 mg/kg, applied topically measured for 5 to 9 days post-infection; type: organism-based; settings: in vivo, topical_or_ocular, dose lower 10 mg/kg, time lower 5 day, dose upper 20 mg/kg, time upper 9 day
Human alphaherpesvirus 1 [21] = experiment: Antiviral activity against HSV1 infected in African green monkey Vero cells assessed as inhibition of transcription by measuring viral gene level at 0.25 to 2 uM by RT-PCR analysis relative to control; type: functional, organism-based; settings: dose 0.25-2 µM
Human alphaherpesvirus 1 [22] = experiment: Antiviral activity against HSV1 expressing GFP infected in African green monkey Vero cells assessed as reduction in green fluorescence protein expression at 1 uM measured after 24 hrs post-infection by immunofluorescence based fluorescence microscopy; type: functional, organism-based

Structure (SMILES): CC(C)CC1C2=C(Oc3cc(O)c(C(=O)C4CCC4)c(O)c31)C(C)(C)C(=O)C(C)(C)C2=O (centres undefined)
fold change (FC) (Human alphaherpesvirus 1 [1]): 1867
IC50 (Human alphaherpesvirus 1 [2]): 300 nM
selectivity ratio [3]: 26
IC50 (Human alphaherpesvirus 1 [4]): 250 nM
Activity (Human alphaherpesvirus 1 [5]): Dose-dependent-effect
CC50 at 24 h [6]: 13000 nM
IC50 (Human alphaherpesvirus 1 [7]): 500 nM
Activity (Human alphaherpesvirus 1 [8]): Active

Structure (SMILES): CC(C)(C)c1cnc(CSc2cnc(NC(=O)C3CCNCC3)s2)o1
Activity (Vero [9]): Active
Activity (Vero [10]): Active
Activity (Vero [11]): Active

Structure (SMILES): Nc1nc2c(ncn2COCCO)c(=O)[nH]1 [ACYCLOVIR]
IC50 (Human alphaherpesvirus 1 [2]): > 100000 nM
Activity (Human alphaherpesvirus 1 [12]): Active
selectivity ratio [3]: > 80
Activity (Human alphaherpesvirus 1 [13]): inactive
IC50 (Human alphaherpesvirus 1 [4]): > 100000 nM
CC50 at 24 h [6]: > 100000 nM
IC50 (Human alphaherpesvirus 1 [7]): 1200 nM

Structure (SMILES): CC(C)CC(=O)c1c(O)c(Cl)c2c(c1O)C(CC(C)C)C1=C(O2)C(C)(C)C(=O)C(C)(C)C1=O (centres undefined)
fold change (FC) (Human alphaherpesvirus 1 [1]): 3549
IC50 (Human alphaherpesvirus 1 [2]): 400 nM
selectivity ratio [3]: 35
IC50 (Human alphaherpesvirus 1 [4]): 300 nM
Activity (Human alphaherpesvirus 1 [5]): Dose-dependent-effect
CC50 at 24 h [6]: 14000 nM
IC50 (Human alphaherpesvirus 1 [7]): 400 nM

Structure (SMILES): CC(C)CC(=O)c1c(O)cc2c(c1O)C(CC(C)C)C1=C(O2)C(C)(C)C(=O)C(C)(C)C1=O (racemic)
Activity (Human alphaherpesvirus 1 [14]): Active
Activity (Human alphaherpesvirus 1 [15]): Active
Activity (Vero [9]): inactive
Activity (Human alphaherpesvirus 1 [1]): Active
IC50 (Human alphaherpesvirus 1 [2]): 300 nM
selectivity ratio [3]: 17.9
Activity (Vero [16]): Dose-dependent-effect
IC50 (Human alphaherpesvirus 1 [4]): 300 nM
fold change (FC) (Human alphaherpesvirus 1 [5]): 3943
IC50 (Human alphaherpesvirus 2): 350 nM
CC50 at 24 h [6]: 7000 nM
Activity (Vero [10]): Active; Compound Showed Only Slight Inhibition
IC50 (Human alphaherpesvirus 1 [7]): 390 nM
Activity (Human alphaherpesvirus 1 [17]): Active
Activity (Human alphaherpesvirus 1 [8]): Active
Activity (Human alphaherpesvirus 1 [18]): Active
Activity (Human alphaherpesvirus 1 [19]): Active
Activity [20]: Non-toxic
Activity (Human alphaherpesvirus 1 [21]): Active
Activity (Human alphaherpesvirus 1 [22]): Active

IC50 (Human alphaherpesvirus 1 [7]): 3750 nM
Structure (SMILES): CC(C)CC(=O)c1c(O)cc2c(c1O)[C@@H](CC(C)C)C1=C(O2)C(C)(C)[C@@H](O)C(C)(C)C1=O
selectivity ratio [3]: < 6.67
CC50 at 24 h [6]: 10000 nM
Activity (Human alphaherpesvirus 1 [8]): Active

Structure (SMILES): CCC1C2=C(Oc3cc(O)c(C(=O)CC(C)C)c(O)c31)C(C)(C)C(=O)C(C)(C)C2=O (centres undefined)
IC50 (Human alphaherpesvirus 1 [2]): 500 nM
selectivity ratio [3]: 7.5
IC50 (Human alphaherpesvirus 1 [4]): 600 nM
CC50 at 24 h [6]: 6000 nM
IC50 (Human alphaherpesvirus 1 [7]): 800 nM
